Measured values as given in ChEMBL document CHEMBL1146558, “Constituents from the stems of Aristolochia manshuriensis” (J Nat Prod, 2003).
Converted amounts (≈) assume the structure as drawn. The source made the active and inactive calls. No cut-off for these calls is given here.

What was measured:
MCF7 = assay: Cytotoxicity against human MCF7 cells after 3 days by SRB assay; type: functional, cell-based
A549 = assay: Cytotoxicity against human A549 cells after 3 days by SRB assay; type: functional, cell-based
[1] = tested on: Human immunodeficiency virus; assay: Antiviral activity against HIV infected in human H9 cells; type: functional, organism-based; conditions: Human immunodeficiency virus 1, H9
H9 = assay: Cytotoxicity against human H9 cells; type: cell-based
[2] = Therapeutic index, ratio of IC50 for human H9 cells to EC50 for HIV; type: cell-based; conditions: read-out: Ratio IC50/EC50

Row | Compound | Activity (MCF7) | Activity (A549) | EC50 [1] | IC50 (H9) | selectivity ratio [2]
1 | O=C(O)c1cc2c(c3c1ccc1ccccc13)OCO2 | inactive | inactive |  |  | 
2 | COc1cc(/C=C/C(=O)NCCc2ccc(O[C@@H]3O[C@H](CO)[C@@H](O)[C@H](O)[C@H]3O)c(OC)c2)ccc1O[C@@H]1O[C@H](CO)[C@@H](O)[C@H](O)[C@H]1O | inactive | inactive |  |  | 
3 | CC1=C2OC(C)(C)c3c(O)cc(C)c(c32)C(=O)C1=O [DEHYDROOXOPEREZINONE] | inactive | inactive | 17.5 µg/mL (≈ 67.8 µM) | 25.1 µg/mL (≈ 97.2 µM) | 1.43
